Like-named read-outs stand apart in the source and are kept apart here.
Target: T1, human PAH with the R408W mutation (Homo sapiens, UniProt P00439, R408W)
T1 construct: expressed in transfected cells
T1 sequence (P00439 1-452 R408W): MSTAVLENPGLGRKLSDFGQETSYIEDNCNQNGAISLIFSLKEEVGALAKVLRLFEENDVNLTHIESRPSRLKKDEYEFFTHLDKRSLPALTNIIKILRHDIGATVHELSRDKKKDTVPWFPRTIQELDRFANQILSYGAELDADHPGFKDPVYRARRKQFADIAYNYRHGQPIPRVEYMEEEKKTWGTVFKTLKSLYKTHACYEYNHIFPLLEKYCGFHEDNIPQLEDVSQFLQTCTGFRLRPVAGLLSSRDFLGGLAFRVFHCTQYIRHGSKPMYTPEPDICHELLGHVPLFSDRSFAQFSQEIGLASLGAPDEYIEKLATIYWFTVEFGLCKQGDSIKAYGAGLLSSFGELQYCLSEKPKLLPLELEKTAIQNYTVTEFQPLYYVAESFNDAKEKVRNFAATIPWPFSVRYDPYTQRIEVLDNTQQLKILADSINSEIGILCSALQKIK
Experiment: Cell Based Phenylalanine Flux Assay
Parameters: scale not given here
Conditions: A375 R408W cells, 24 hrs with compound, then 20 μM sepiapterin and 800 μM 13C9,15N-Phenylalanine for 4 hours, 13C-Tyrosine by LC-MS, average where tested multiple times

AC50 (read-out: AC50)	AC50	Structure (SMILES)
> 5 µM	–	CC(C)(O)c1ccc2c(C(=O)N3CCc4[nH]cnc4C3c3cc4ccccc4cn3)cnn2c1 (stereo not shown)
> 5 µM	–	CC(C)(O)c1ccc2c(C(=O)N3CCc4[nH]cnc4C3c3ccc4ccccc4n3)cnn2c1 (stereo not shown)
–	E, E	CC(C)(O)c1nc(C(F)F)c(C(=O)N2CCc3[nH]cnc3C2c2ncc3ccccc3n2)o1 (stereo not shown)
> 5 µM	–	O=C(c1n[nH]c2ccccc12)N1CCc2[nH]cnc2C1c1ccc2ccccc2n1 (stereo not shown)
–	E, E	Cc1nc(C(=O)N2CCc3[nH]cnc3C2c2ncc3ccccc3n2)n(C)n1 (stereo not shown)
> 5 µM	–	O=C(c1cnco1)N1CCc2[nH]cnc2C1c1ccc2ccccc2n1 (stereo not shown)
–	E, E	Cn1cc(-c2nc(C(F)(F)F)c(C(=O)N3CCc4[nH]cnc4C3c3ncc4ccccc4n3)o2)cn1 (stereo not shown)
–	E, E	Cn1cnc(-c2nc(C(F)F)c(C(=O)N3CCc4[nH]cnc4C3c3ncc4ccccc4n3)o2)c1 (stereo not shown)
–	E, E	O=C(c1oc(-c2ncccn2)nc1C(F)F)N1CCc2[nH]cnc2C1c1ncc2ccccc2n1 (stereo not shown)
–	E, E	O=C(c1oc(-c2ccncn2)nc1C(F)F)N1CCc2[nH]cnc2C1c1ncc2ccccc2n1 (stereo not shown)
–	E, E	O=C(c1oc(-c2cncnc2)nc1C(F)F)N1CCc2[nH]cnc2C1c1ncc2ccccc2n1 (stereo not shown)
1 to 5 µM	–	CC(C)(O)c1ncc(C(=O)N2CCc3[nH]cnc3C2c2cc3ccccc3cn2)o1 (stereo not shown)
–	E, E	CC(C)(O)c1nc(C(F)(F)F)c(C(=O)N2CCc3[nH]cnc3C2c2ncc3ccccc3n2)o1 (stereo not shown)
> 5 µM	–	CC(C)(O)c1ncc(C(=O)N2CCc3[nH]cnc3C2c2ccc3ccccc3n2)s1 (stereo not shown)
> 5 µM	–	CN1CCN(c2nnc(C(=O)N3CCc4[nH]cnc4C3c3ccc4ccccc4n3)o2)CC1 (stereo not shown)
> 5 µM	–	O=C(c1nnc(N2CCOCC2)o1)N1CCc2[nH]cnc2C1c1ccc2ccccc2n1 (stereo not shown)
> 5 µM	–	Cc1nnc(C(=O)N2CCc3[nH]cnc3C2c2ccc3ccccc3n2)o1 (stereo not shown)
> 5 µM	–	CC(C)(F)c1ccc2c(C(=O)N3CCc4[nH]cnc4C3c3ccc4ccccc4n3)cnn2c1 (stereo not shown)
> 5 µM	–	O=C(c1ncn2ccccc12)N1CCc2[nH]cnc2C1c1ccc2ccccc2n1 (stereo not shown)
–	E, E	O=C(c1ccnn1C(F)F)N1CCc2[nH]cnc2C1c1ncc2ccccc2n1 (stereo not shown)
–	E, E	O=C(c1oc(-c2ccccn2)nc1C(F)(F)F)N1CCc2[nH]cnc2C1c1ncc2ccccc2n1 (stereo not shown)
–	E, E	Cn1cc(-c2nc(C(F)F)c(C(=O)N3CCc4[nH]cnc4C3c3ncc4ccccc4n3)o2)cn1 (stereo not shown)

AC50 (read-out: AC50)	AC50	Structure (SMILES)
–	E, E	CN1CCN(c2nc(C(F)F)c(C(=O)N3CCc4[nH]cnc4C3c3ncc4ccccc4n3)o2)CC1 (stereo not shown)
–	E, E	O=C(c1oc(-c2ccc(F)cn2)nc1C(F)F)N1CCc2[nH]cnc2C1c1ncc2ccccc2n1 (stereo not shown)
–	E, E	COc1ccc(-c2nc(C(F)F)c(C(=O)N3CCc4[nH]cnc4C3c3ncc4ccccc4n3)o2)nc1 (stereo not shown)
–	E, E	O=C(c1oc(-c2cnccn2)nc1C(F)F)N1CCc2[nH]cnc2C1c1ncc2ccccc2n1 (stereo not shown)
–	E, E	O=C(c1oc(-c2ccccn2)nc1C(F)F)N1CCc2[nH]cnc2C1c1ncc2ccccc2n1 (stereo not shown)
–	E, E	O=C(c1oc(-c2cccnc2)nc1C(F)F)N1CCc2[nH]cnc2C1c1ncc2ccccc2n1 (stereo not shown)
–	E, E	O=C(c1oc(-c2ccncc2)nc1C(F)F)N1CCc2[nH]cnc2C1c1ncc2ccccc2n1 (stereo not shown)
–	E, E	O=C(c1oc(N2CCOCC2)nc1C(F)F)N1CCc2[nH]cnc2C1c1ncc2ccccc2n1 (stereo not shown)
–	E, E	O=C(c1ocnc1C(F)F)N1CCc2[nH]cnc2C1c1ncc2ccccc2n1 (stereo not shown)
–	E, E	O=C(c1ocnc1C(F)(F)F)N1CCc2[nH]cnc2C1c1ncc2ccccc2n1 (stereo not shown)
> 5 µM	–	CN(C)Cc1ccc2c(C(=O)N3CCc4[nH]cnc4C3c3ccc4ccccc4n3)cnn2c1 (stereo not shown)
1 to 5 µM	–	CN(C)Cc1ccc2c(C(=O)N3CC4(CC4)c4[nH]cnc4C3c3cc4ccccc4cn3)cnn2c1 (stereo not shown)
1 to 5 µM	–	C[C@H](O)c1nnc(C(=O)N2CCc3[nH]cnc3[C@H]2c2cc3ccccc3cn2)o1
1 to 5 µM	–	CC1CN(C(=O)c2nnc(N3CCC(F)CC3)o2)C(c2cc3ccccc3cn2)c2nc[nH]c21 (stereo not shown) [listing 1 of 3 here]
1 to 5 µM	–	CC1CN(C(=O)c2nnc(N3CCC(F)CC3)o2)C(c2cc3ccccc3cn2)c2nc[nH]c21 (stereo not shown) [listing 2 of 3 here]
1 to 5 µM	–	Cc1nnc(C(=O)N2CC(C)c3[nH]cnc3C2c2cc3ccccc3cn2)o1 (stereo not shown)
1 to 5 µM	–	CC1CN(C(=O)c2cnn3cc(CN(C)C)ccc23)C(c2cc3ccccc3cn2)c2nc[nH]c21 (stereo not shown) [listing 1 of 3 here]
> 5 µM	–	CC1CN(C(=O)c2cnn3cc(CN(C)C)ccc23)C(c2cc3ccccc3cn2)c2nc[nH]c21 (stereo not shown) [listing 2 of 3 here]
> 5 µM	–	CC1CN(C(=O)c2nnc(N3CCC(F)CC3)o2)C(c2cc3ccccc3cn2)c2nc[nH]c21 (stereo not shown) [listing 3 of 3 here]
1 to 5 µM	–	CC1CN(C(=O)c2cnn3cc(CN(C)C)ccc23)C(c2cc3ccccc3cn2)c2nc[nH]c21 (stereo not shown) [listing 3 of 3 here]
1 to 5 µM	–	COC(=O)N1CC(C(=O)N2CCc3[nH]cnc3[C@H]2c2cc3ccccc3cn2)C1

From patent US20250262201A1, “COMPOUNDS AND METHODS USEFUL FOR STABILIZING PHENYLALANINE HYDROXYLASE MUTATIONS” (Agios Pharmaceuticals, Inc., priority 2022, published 2025)
